{"source": "patent US20080312304A1", "about": "“Topical compositions containing metronidazole” (priority 2007, published 2008)", "key": {"[1]": {"experiment": "physical stability test of aqueous metronidazole compositions (crystal formation or precipitation)", "type": "physicochemical", "settings": "for Results from stability test: 1.0% metronidazole, 24 hours room temperature, then 7 days at about 4 °C; for concentration of the solubility enhancing agent required to obtain a stable aqueous solution of 1.0% metronidazole: agent used as the only solubility enhancing agent, stability test of Example 1; for N-2-hydroxyethyl urea concentration functionally equivalent to 1% of the agent in inducing the solubility enhancing effect: worked out from Examples 2, 3 and 4", "experimental": "The solubility enhancing effect of the combination of niacinamide, urea, and hydroxyalkyl urea in increasing the solubility of metronidazole in the aqueous compositions is evaluated by physical stability of the prepared compositions.\nTherefore, the compositions in accordance with the present invention are subject to a physical stability test. The protocol for the stability test is as follows: metronidazole and the solubility enhancing agents are combined with water either at room temperature or elevated temperature while stirring until dissolved. The solutions are permitted to cool to room temperature. Customary auxiliaries and additives may be added to the aqueous solutions containing solubilized metronidazole and solubility enhancing agents. The solutions may be gelled by using the suitable gelling agents. The compositions both in gel or solution form are then packaged in clear glass vials and sealed. The vials are kept at room temperature for 24 hours and monitored for crystal formation or precipitation. After 24 hours, the vials are placed in a refrigerator maintained at a temperature of about 4 ° C. for 7 days. After 7 days, the vials are removed from the refrigerator. Evidence of crystal formation or precipitation in the compositions is examined."}, "[2]": {"settings": "at 25 °C; cited from earlier work"}}}
{"smiles": "Cc1ncc([N+](=O)[O-])n1CCO", "note": "[Metronidazole, 1-(2-hydroxyethyl)-2-methyl-5-nitroimidazole]", "values": [{"measurement": "Results from stability test", "setting": "[1]; 2% niacinamide in water", "value": "Crystals formed"}, {"measurement": "Results from stability test", "setting": "[1]; 2.0% urea, 2.0% N-2-hydroxyethyl urea, 2.0% niacinamide in water", "value": "Clear (‘clear’ means no crystals or precipitates)"}, {"measurement": "Results from stability test", "setting": "[1]; 3% niacinamide in water", "value": "Crystals formed"}, {"measurement": "Results from stability test", "setting": "[1]; 3.0% urea, 3.0% N-2-hydroxyethyl urea, 1.5% niacinamide in water", "value": "Clear (‘clear’ means no crystals or precipitates)"}, {"measurement": "Results from stability test", "setting": "[1]; 4% niacinamide in water", "value": "Crystals formed"}, {"measurement": "Results from stability test", "setting": "[1]; 5% niacinamide in water", "value": "Clear (‘clear’ means no crystals or precipitates)"}, {"measurement": "Results from stability test", "setting": "[1]; 7% urea in water", "value": "Crystals formed"}, {"measurement": "Results from stability test", "setting": "[1]; 8% urea in water", "value": "Crystals formed"}, {"measurement": "Results from stability test", "setting": "[1]; 9% urea in water", "value": "Crystals formed"}, {"measurement": "Results from stability test", "setting": "[1]; 10% urea in water", "value": "Clear (‘clear’ means no crystals or precipitates)"}, {"measurement": "Results from stability test", "setting": "[1]; 13% N-2-hydroxyethyl urea in water", "value": "Crystals formed"}, {"measurement": "Results from stability test", "setting": "[1]; 14% N-2-hydroxyethyl urea in water", "value": "Crystals formed"}, {"measurement": "Results from stability test", "setting": "[1]; 15% N-2-hydroxyethyl urea in water", "value": "Crystals formed"}, {"measurement": "Results from stability test", "setting": "[1]; 16% N-2-hydroxyethyl urea in water", "value": "Clear (‘clear’ means no crystals or precipitates)"}, {"measurement": "result from the stability test, in words", "setting": "[1]; composition containing 2.0% N-2-hydroxyethyl urea, 2.0% niacinamide, 2.0% urea and 1.0% metronidazole", "value": "stable"}]}
{"smiles": "NC(=O)c1cccnc1", "note": "[niacinamide]", "values": [{"measurement": "concentration of the solubility enhancing agent required to obtain a stable aqueous solution of 1.0% metronidazole", "setting": "[1]", "value": "about 5%"}, {"measurement": "N-2-hydroxyethyl urea concentration functionally equivalent to 1% of the agent in inducing the solubility enhancing effect", "setting": "[1]", "value": "about 3.2%"}, {"measurement": "water solubility limit", "setting": "[2]", "value": "about 50 % by weight"}]}
{"smiles": "NC(=O)NCCO", "note": "[N-2-hydroxyethyl urea]", "values": [{"measurement": "concentration of the solubility enhancing agent required to obtain a stable aqueous solution of 1.0% metronidazole", "setting": "[1]", "value": "about 16%"}]}
{"smiles": "NC(N)=O", "note": "[urea]", "values": [{"measurement": "concentration of the solubility enhancing agent required to obtain a stable aqueous solution of 1.0% metronidazole", "setting": "[1]", "value": "about 10%"}, {"measurement": "N-2-hydroxyethyl urea concentration functionally equivalent to 1% of the agent in inducing the solubility enhancing effect", "setting": "[1]", "value": "about 1.6%"}]}
